Experimental data reported in patent publication US20150038435A1, “N-TERMINALLY MODIFIED OLIGOPEPTIDES AND USES THEREOF” (Novo Nordisk A/S, priority 2012, published 2015).
Non-standard residues stand in square brackets, D forms with d. Residues, ends and D or L forms follow the SMILES beside them. *: point of attachment. Lauroyl = CCCCCCCCCCCC(=O)*

System: GI juice
Assay: Inhibition of GI juice degradation of insulin analogue and GLP-1 analogue
Type: biochemical
Settings: compound 1 mM, rat GI juice
Description: 96 well plates were coated by incubating with 0.4% Bovine serum albumin (BSA) solution for minimum of 60 min. […] 1% TFA), 30 μl of a substrate (100 μM insulin analogue or GLP-1 analogue in buffer) and 30 μl of N-terminally acylated peptide or oligopeptide of the invention (10 mM) were added. The plates were pre-incubated (before adding GI juice) for 60 min at 37° C. After addition of 30 μl of GI juice (10-times diluted in buffer), the plates were incubated for 60 min/37° C. on shaker. […] 1% TFA and spun down in plates (4500 rpm for 10 min). Samples were diluted 5 times with the buffer prior to LC-MS analysis. Standard samples (0.1, 0.5, 1.0, 5.0, 10.0 μM) were prepared and treated as the samples. Standard curve was analysed both at the beginning and the end of the sequence. Two replicates of each tested conditions were included. Ion suppression was assessed by analyzing a standard at 1 μM and at 10 μM with 1 mM inhibitor present. Intact insulin or GLP-1 analoues were determined at each sample. The results were plotted against the incubation time. […] The half-lives were expressed relative to the half-live of the insulin or GLP-1 analogue without inhibitor present by dividing the half-lives obtained in the presence of inhibitor with those obtained in the absence of inhibitors. GI juice was prepared from male Sprague Dawley rats (200-250 g) by excising approximately 20 cm piece of mid jejunum and rinsing the inside with 2.5 ml 0.9% sodium chloride solution. The sodium chloride solution was collected in a centrifuge tube, pooled from all rats (20) and centrifuged at 4500 rpm./10 min/4° C. The supernatant was aliquoted in tubes and stored at −80° C.
A14E, B25H, B29K(N(eps)Octadecanedioyl-γGlu-OEG-OEG), desB30 human insulin and N-epsilon26-[2-(2-{2-[2-(2-{2-[(S)-4-Carboxy-4-(17-carboxyheptadecanoylamino)-butyrylamino]ethoxy}ethoxy)acetylamino]ethoxy}ethoxy)acetyl][Aib8,Arg34]GLP-1-(7-37) were used as standards in this assay.
For experiments repeated more than two times, standard deviation is given

## CCCCCCCCCCCC(=O)N[C@H](C)C(=O)N[C@H](C)C(=O)N1CCC[C@@H]1C(=O)N[C@H](Cc1ccccc1)C(=O)O [Example 1, N-dodecanoyl-DAla-DAla-DPro-DPhe-OH] (Lauroyl-[dA][dA][dP][dF]-OH)
  Half Life fold increase (over solution w/o N-terminally acylated (oligo)peptide): 5.0
37° C.
  Half Life of insulin analogue: 13.0 min
